Here are results for 9 compounds from ChEMBL document CHEMBL5727507, “Substituted indole Mcl-1 inhibitors” (2020).

The target in the test is Induced myeloid leukemia cell differentiation protein Mcl-1 (Homo sapiens, UniProt Q07820). Put plainly: Fluorescence Polarization Anisotropy Competition Assay: Compound affinity was measured using a fluorescence polarization anisotropy competition assay. Anisotropy measurements were carried out in 384-well, black, flat-bottom plates (Greiner Bio-one, Monroe, N.C., USA). (In fluorescence polarisation assays a small probe gives low polarisation when free and higher when bound to something large.)
Induced myeloid leukemia cell differentiation protein Mcl-1, sequence (Q07820 whole entry): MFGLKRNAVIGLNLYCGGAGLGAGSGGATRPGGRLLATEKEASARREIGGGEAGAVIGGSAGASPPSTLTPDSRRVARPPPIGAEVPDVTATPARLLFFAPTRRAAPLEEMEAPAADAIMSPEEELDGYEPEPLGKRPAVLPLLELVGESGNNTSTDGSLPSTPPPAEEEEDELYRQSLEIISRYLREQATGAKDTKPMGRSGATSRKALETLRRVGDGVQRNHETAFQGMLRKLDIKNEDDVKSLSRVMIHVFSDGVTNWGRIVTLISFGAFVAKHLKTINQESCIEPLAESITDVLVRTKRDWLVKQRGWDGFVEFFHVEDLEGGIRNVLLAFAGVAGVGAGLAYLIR

For orientation: Ki means a measure of affinity in units of concentration, obtained from inhibition or displacement. Read a high Ki as weaker binding. `Cc1cc(OCCCc2c(C(=O)NCc3cc(C(=O)O)cc(Cl)n3)[nH]c3c(-c4c(C)nn(C)c4C)cccc23)cc(C)c1Cl`: the inhibition constant (Ki) was less than 50 nM.
Under `Cc1cc(OCCCc2c3n(c4c(-c5c(C)nn(C)c5C)c(Cl)ccc24)[C@H](C)CN(c2ccc(C(=O)O)c4ncccc24)C3=O)cc(C)c1Cl` stands less than 50 nM; under `Cc1cc(OCCCc2c(C(=O)N[C@@H]3CCC[C@@H](C(=O)O)C3)[nH]c3c(-c4c(C)nn(C)c4C)cccc23)cc(C)c1Cl`, less than 50 nM.
In turn, `Cc1cc(OCCCc2c(C(=O)N(C)c3ccc(C(=O)O)cc3)[nH]c3c(-c4c(C)nn(C)c4C)c(Cl)ccc23)cc(C)c1Cl` came in with a Ki of less than 50 nM.
Under `Cc1cc(OCCCc2c3n(c4c(-c5c(C)nn(C)c5C)c(Cl)ccc24)CCCN(c2ccc(C(=O)O)c4ncccc24)C3=O)cc(C)c1Cl` stands less than 50 nM.
On to `Cc1cc(OCCCc2c(C(=O)N[C@H]3CC[C@@H](C(=O)O)CC3)[nH]c3c(-c4c(C)nn(C)c4C)cccc23)cc(C)c1Cl`, for which the inhibition constant (Ki) is less than 50 nM.
On to `Cc1cc(OCCCc2c3n(c4c(-c5c(C)nn(C)c5C)c(Cl)ccc24)CCCN(c2ccc(C(=O)O)c4c2ccn4C)C3=O)cc(C)c1Cl`, for which the Ki is less than 50 nM.
Consider `Cc1cc(OCCCc2c3n(c4c(-c5c(C)nn(C)c5C)cccc24)CCCN(c2ccnc4c(C(=O)O)cccc24)C3=O)cc(C)c1Cl`, for which the Ki was less than 50 nM.
Then `Cc1cc(OCCCc2c(C(=O)N3CCN(c4ccc(C(=O)O)cc4)CC3)n(CCN3CCOCC3)c3c(-c4c(C)nn(C)c4C)c(Cl)ccc23)cc(C)c1Cl`, with less than 50 nM.
